Counter-ions that a name gives are not always drawn.
Experiments:
Candida kefyr = experiment: Measurement of antifungal activity in vitro (lowest active dose) vs. Candida kefyr; assay type: cell-based; conditions: lowest concentration inhibiting growth below 35% of control growth; CYG broth, 37° C. for 48 h, turbidimetry
Experimental: (§1) Test compounds were dissolved at a concentration of 10^−2 M in dimethyl sulfoxide (DMSO) and diluted into CYG broth (Odds, F. C. Antimicrobial Agents and Chemotherapy 1992; 36: 1727-1737) to give a final concentration of 25 μM and, in most tests, 5 μM. For some compounds the tests were done at 100, 10, 1.0 and 0.1 μM. Cultures were inoculated with Candida.kefyr to an initial concentration of 10^4/ml and with Trichophyton rubrum to an equivalent concentration determined by turbidimetry. Cultures were incubated in the wells of microdilution plates at 37° C. for 48 h (C. kefyr) and at 30° C. for 5-7 days (T. rubrum). Growth in wells containing test compounds was estimated turbidimetrically as a percentage of growth in compound-free controls and the lowest concentration of compound that inhibited the growth of an isolate below 35% of control growth was recorded as the lowest active dose (LAD).

Trichophyton rubrum = experiment: Measurement of antifungal activity in vitro (lowest active dose) vs. Trichophyton rubrum; assay type: cell-based; conditions: lowest concentration inhibiting growth below 35% of control growth; CYG broth, 30° C. for 5-7 days, turbidimetry
Experimental: as §1

Work on `CC(C)N(C)C(=O)Nc1ccc(N2CCN(c3ccc(OCC4OCC(Cn5cncn5)(c5ccc(F)cc5F)O4)cc3)CC2)cc1` (stereo not drawn) (as salt: HCl) [Compound 54, (B-cis)-N-[4-[4-[4-[[4-(2,4-difluorophenyl)-4-(1H-1,2,4-triazol-1-yl-methyl)-1,3-dioxolan-2-yl]methoxy]phenyl]-1-piperazinyl]phenyl]-N′-methyl-N′-(1-methylethyl)urea] yielded a melting point of 186 °C.
With `CCCN1CCN(c2ccc(N3CCN(c4ccc(OCC5OCC(Cn6ccnc6)(c6ccc(Cl)cc6)O5)cc4)CC3)cc2)C1=O` (racemic) [Compound 4] the “LAD (μM) vs. C. keyr” value (Candida kefyr) was “≦5 μM” and the “LAD (μM) vs. T. rubrum” value (Trichophyton rubrum) was “≦5 μM”.
For `CCCN1C(=O)N(c2ccc(N3CCN(c4ccc(OCC5OCC(Cn6ccnc6)(c6ccc(Cl)cc6)O5)cc4)CC3)cc2)CC1(C)C` (racemic) [Compound 5], the “LAD (μM) vs. C. keyr” value (Candida kefyr) was “≦25 μM” and the “LAD (μM) vs. T. rubrum” value (Trichophyton rubrum) was “≦5 μM”.
With `CCCN1C(=O)N(c2ccc(N3CCN(c4ccc(OC[C@@H]5OC[C@@](Cn6cncn6)(c6ccc(Cl)cc6)O5)cc4)CC3)cc2)CC1(C)C` (racemic) [Compound 9] the “LAD (μM) vs. C. keyr” value (Candida kefyr) was “≦25 μM” and the “LAD (μM) vs. T. rubrum” value (Trichophyton rubrum) was “≦25 μM”.
For `CCCN1C(=O)N(c2ccc(N3CCN(c4ccc(OC[C@@H]5OC[C@@](Cn6ccnc6)(c6ccc(F)cc6)O5)cc4)CC3)cc2)CC1(C)C` (racemic) [Compound 12], the “LAD (μM) vs. C. keyr” value (Candida kefyr) was “≦25 μM” and the “LAD (μM) vs. T. rubrum” value (Trichophyton rubrum) was “≦5 μM”.
With `CCCN1C(=O)N(c2ccc(N3CCN(c4ccc(OC[C@@H]5OC[C@@](Cn6cncn6)(c6ccc(F)cc6)O5)cc4)CC3)cc2)CC1(C)C` (racemic) [Compound 13] the “LAD (μM) vs. C. keyr” value (Candida kefyr) was “≦5 μM” and the “LAD (μM) vs. T. rubrum” value (Trichophyton rubrum) was “≦5 μM”.
With `CCN1C(=O)N(c2ccc(N3CCN(c4ccc(OC[C@@H]5OC[C@@](Cn6cncn6)(c6ccc(F)cc6F)O5)cc4)CC3)cc2)C(C)(C)C1=O` (racemic) [Compound 19] the “LAD (μM) vs. C. keyr” value (Candida kefyr) was “≦5 μM” and the “LAD (μM) vs. T. rubrum” value (Trichophyton rubrum) was “≦25 μM”.
For `CCC1C(=O)N(c2ccc(N3CCN(c4ccc(OC[C@@H]5OC[C@@](Cn6cncn6)(c6ccc(F)cc6F)O5)cc4)CC3)cc2)C(=O)N1CC` (mixture of isomers) [Compound 20], the “LAD (μM) vs. C. keyr” value (Candida kefyr) was “≦5 μM” and the “LAD (μM) vs. T. rubrum” value (Trichophyton rubrum) was greater than 25 µM.
In the case of `CC(C)N1CCN(c2ccc(N3CCN(c4ccc(OC[C@@H]5OC[C@@](Cn6ccnc6)(c6ccc(F)cc6)O5)cc4)CC3)cc2)C1=O` (racemic) [Compound 23], the “LAD (μM) vs. C. keyr” value (Candida kefyr) is reported as “≦5 μM” and the “LAD (μM) vs. T. rubrum” value (Trichophyton rubrum) is reported as “≦5 μM”.
For `CCN1CCN(c2ccc(N3CCN(c4ccc(OC[C@@H]5OC[C@@](Cn6ccnc6)(c6ccc(F)cc6)O5)cc4)CC3)cc2)C1=O` (racemic) [Compound 24], the “LAD (μM) vs. C. keyr” value (Candida kefyr) was “≦25 μM” and the “LAD (μM) vs. T. rubrum” value (Trichophyton rubrum) was “≦5 μM”.
For `CCCN1CCN(c2ccc(N3CCN(c4ccc(OC[C@@H]5OC[C@@](Cn6ccnc6)(c6ccc(F)cc6)O5)cc4)CC3)cc2)C1=O` (racemic) [Compound 25], the “LAD (μM) vs. C. keyr” value (Candida kefyr) was “≦5 μM” and the “LAD (μM) vs. T. rubrum” value (Trichophyton rubrum) was “≦5 μM”.
In the case of `CCCCN1CCN(c2ccc(N3CCN(c4ccc(OC[C@@H]5OC[C@@](Cn6ccnc6)(c6ccc(F)cc6)O5)cc4)CC3)cc2)C1=O` (racemic) [Compound 26], the “LAD (μM) vs. C. keyr” value (Candida kefyr) is reported as “≦25 μM” and the “LAD (μM) vs. T. rubrum” value (Trichophyton rubrum) is reported as “≦5 μM”.
With `CCN1CCN(c2ccc(N3CCN(c4ccc(OC[C@@H]5OC[C@@](Cn6ccnc6)(c6ccc(Cl)cc6)O5)cc4)CC3)cc2)C1=O` (racemic) [Compound 27] the “LAD (μM) vs. C. keyr” value (Candida kefyr) was “≦5 μM” and the “LAD (μM) vs. T. rubrum” value (Trichophyton rubrum) was “≦5 μM”.
In the case of `CC(C)N1CCN(c2ccc(N3CCN(c4ccc(OC[C@@H]5OC[C@@](Cn6ccnc6)(c6ccc(Cl)cc6)O5)cc4)CC3)cc2)C1=O` (racemic) [Compound 28], the “LAD (μM) vs. C. keyr” value (Candida kefyr) is reported as “≦25 μM” and the “LAD (μM) vs. T. rubrum” value (Trichophyton rubrum) is reported as “≦5 μM”.
With `CCCCN1CCN(c2ccc(N3CCN(c4ccc(OC[C@@H]5OC[C@@](Cn6ccnc6)(c6ccc(Cl)cc6)O5)cc4)CC3)cc2)C1=O` (racemic) [Compound 29] the “LAD (μM) vs. C. keyr” value (Candida kefyr) was “≦25 μM” and the “LAD (μM) vs. T. rubrum” value (Trichophyton rubrum) was “≦5 μM”.
With `CCCN1CCN(c2ccc(N3CCN(c4ccc(OC[C@@H]5OC[C@@](Cn6ccnc6)(c6ccc(F)cc6F)O5)cc4)CC3)cc2)C1=O` (racemic) [Compound 30] the “LAD (μM) vs. C. keyr” value (Candida kefyr) was “≦5 μM” and the “LAD (μM) vs. T. rubrum” value (Trichophyton rubrum) was “≦5 μM”.
With `CCN1CCN(c2ccc(N3CCN(c4ccc(OC[C@@H]5OC[C@@](Cn6ccnc6)(c6ccc(F)cc6F)O5)cc4)CC3)cc2)C1=O` (racemic) [Compound 32] the “LAD (μM) vs. C. keyr” value (Candida kefyr) was “≦25 μM” and the “LAD (μM) vs. T. rubrum” value (Trichophyton rubrum) was “≦5 μM”.
With `CC(C)N1CCN(c2ccc(N3CCN(c4ccc(OC[C@@H]5OC[C@@](Cn6ccnc6)(c6ccc(F)cc6F)O5)cc4)CC3)cc2)C1=O` (racemic) [Compound 34] the “LAD (μM) vs. C. keyr” value (Candida kefyr) was “≦5 μM” and the “LAD (μM) vs. T. rubrum” value (Trichophyton rubrum) was “≦5 μM”.
For `CCC(C)N1CCN(c2ccc(N3CCN(c4ccc(OC[C@@H]5OC[C@@](Cn6ccnc6)(c6ccc(F)cc6F)O5)cc4)CC3)cc2)C1=O` (mixture of isomers) [Compound 35], the “LAD (μM) vs. C. keyr” value (Candida kefyr) was “≦25 μM” and the “LAD (μM) vs. T. rubrum” value (Trichophyton rubrum) was “≦5 μM”.
In the case of `CC(C)N1CCN(c2ccc(N3CCN(c4ccc(OC[C@@H]5OC[C@@](Cn6cncn6)(c6ccc(F)cc6)O5)cc4)CC3)cc2)C1=O` (racemic) [Compound 40], the “LAD (μM) vs. C. keyr” value (Candida kefyr) is reported as “≦25 μM” and the “LAD (μM) vs. T. rubrum” value (Trichophyton rubrum) is reported as “≦5 μM”.
For `CN1CCN(c2ccc(N3CCN(c4ccc(OC[C@@H]5OC[C@@](Cn6ccnc6)(c6ccc(F)cc6)O5)cc4)CC3)cc2)C1=O` (racemic) [Compound 42], the “LAD (μM) vs. C. keyr” value (Candida kefyr) was “≦5 μM” and the “LAD (μM) vs. T. rubrum” value (Trichophyton rubrum) was “≦5 μM”.
In the case of `CCC(CC)N1CCN(c2ccc(N3CCN(c4ccc(OC[C@@H]5OC[C@@](Cn6ccnc6)(c6ccc(F)cc6)O5)cc4)CC3)cc2)C1=O` (racemic) [Compound 44], the “LAD (μM) vs. C. keyr” value (Candida kefyr) is reported as “≦5 μM” and the “LAD (μM) vs. T. rubrum” value (Trichophyton rubrum) is reported as “≦5 μM”.
For `CCC(C)N1CCN(c2ccc(N3CCN(c4ccc(OC[C@@H]5OC[C@@](Cn6cncn6)(c6ccc(F)cc6F)O5)cc4)CC3)cc2)C1=O` (relative stereo) [Compound 21, cis-1-[4-[4-[4-[[4-(2,4-difluorophenyl)-4-(1H-1,2,4-triazol-1-ylmethyl)-1,3-dioxolan-2-yl]methoxy]phenyl]-1-piperazinyl]phenyl]-3-(1-methylpropyl)-2-imidazolidinone], the “LAD (μM) vs. C. keyr” value (Candida kefyr) was “≦0.1 μM” and the “LAD (μM) vs. T. rubrum” value (Trichophyton rubrum) was “≦0.1 μM”.
For `CCCn1c(=O)n(CC)c(=O)n(-c2ccc(N3CCN(c4ccc(OC[C@H]5OC[C@](Cn6cncn6)(c6ccc(F)cc6F)O5)cc4)CC3)cc2)c1=O` (relative stereo) [Compound 47, (2S-cis)-1-ethyl-3-[4-[4-[4-[[4-(2,4-difluorophenyl)-4-(1H-1,2,4-triazol-1-ylmethyl)-1,3-dioxolan-2-yl]methoxy]-phenyl]-1-piperazinyl]phenyl]-5-propyl-1,3,5-triazine-2,4,6(1H,3H,5H)-trione], the “LAD (μM) vs. C. keyr” value (Candida kefyr) was greater than 100 µM and the “LAD (μM) vs. T. rubrum” value (Trichophyton rubrum) was 1 µM.
In the case of `CCN1C(=O)N(c2ccc(N3CCN(c4ccc(OC[C@@H]5OC[C@@](Cn6cncn6)(c6ccc(F)cc6F)O5)cc4)CC3)cc2)C(=O)C(C)(C)C1=O` (relative stereo) [Compound 48, (2R-cis)-1-ethyl-3-[4-[4-[4-[[4-(2,4-diflurorophenyl)-4-(1H-1,2,4-triazol-1-ylmethyl)-1,3-dioxolan-2-yl]methoxy]phenyl]-1-piperazinyl]phenyl]-5,5-dimethyl-2,4,6(1H,3H,5H)-pyrimidinetrione], the “LAD (μM) vs. C. keyr” value (Candida kefyr) is reported as 10 µM and the “LAD (μM) vs. T. rubrum” value (Trichophyton rubrum) is reported as greater than 100 µM.
For `CC(C)N1CCN(c2ccc(N3CCN(c4ccc(OC[C@@H]5OC[C@@](Cn6cncn6)(c6ccc(F)cc6F)O5)cc4)CC3)cc2)C1=O` (stereo in doubt) [Compound 41], the “LAD (μM) vs. C. keyr” value (Candida kefyr) was “≦0.1 μM” and the “LAD (μM) vs. T. rubrum” value (Trichophyton rubrum) was “≦0.1 μM”.
In the case of `CC(C)N1CCN(c2ccc(N3CCN(c4ccc(OC[C@H]5OC[C@](Cn6cncn6)(c6ccc(F)cc6F)O5)cc4)CC3)cc2)C1=O.Cl` (stereo in doubt) [Compound 52, (2S-cis)-1-[4-[4-[4-[[4-(2,4-difluorophenyl)-4-(1H-1,2,4-triazol-1-ylmethyl)-1,3-dioxolan-2-yl]methoxy]phenyl]-1-piperazinyl]phenyl]-3-(1-methylethyl)-2-imidazolidinone hydrochloride (1:1)], the “LAD (μM) vs. C. keyr” value (Candida kefyr) is reported as “≦0.1 μM” and the “LAD (μM) vs. T. rubrum” value (Trichophyton rubrum) is reported as “≦0.1 μM”.
For `CCCn1c(=O)n(CC)c(=O)n(-c2ccc(N3CCN(c4ccc(OC[C@@H]5OC[C@@](Cn6cncn6)(c6ccc(F)cc6F)O5)cc4)CC3)cc2)c1=O` [Compound 46], the “LAD (μM) vs. C. keyr” value (Candida kefyr) was 1 µM and the “LAD (μM) vs. T. rubrum” value (Trichophyton rubrum) was 100 µM.
With `CCN1C(=O)N(c2ccc(N3CCN(c4ccc(OC[C@H]5OC[C@](Cn6cncn6)(c6ccc(F)cc6F)O5)cc4)CC3)cc2)C(=O)C(C)(C)C1=O` [Compound 49] the “LAD (μM) vs. C. keyr” value (Candida kefyr) was 1 µM and the “LAD (μM) vs. T. rubrum” value (Trichophyton rubrum) was 1 µM.
For `CC(C)N1CCN(c2ccc(N3CCN(c4ccc(OC[C@@H]5OC[C@@](Cn6cncn6)(c6ccc(F)cc6F)O5)cc4)CC3)cc2)C1=O` [Compound 50], the “LAD (μM) vs. C. keyr” value (Candida kefyr) was 1 µM and the “LAD (μM) vs. T. rubrum” value (Trichophyton rubrum) was 1 µM.
`CC(C)NC(=O)Nc1ccc(N2CCN(c3ccc(OCC4OCC(Cn5cncn5)(c5ccc(F)cc5F)O4)cc3)CC2)cc1` (stereo not drawn) [Compound 53, (2S-cis)-N-[4-[4-[4-[[4-(2,4-difluorophenyl)-4-(1H-1,2,4-triazol-1-ylmetyl)-1,3-dioxolan-2-yl]-methoxy]phenyl]-1-piperazinyl]phenyl]-N′-(1-methylethyl)urea] showed a melting point of 196 °C.
